BigSolDB 2.1

Details: in water

O=S(=O)([O-])c1cccc2ccccc12.[Na+]
Details | solubility (mole fraction)
278.15 K | 0.0107
283.15 K | 0.0109
288.15 K | 0.0113
293.15 K | 0.0119
298.15 K | 0.0126
303.15 K | 0.0134
308.15 K | 0.0141
313.15 K | 0.0152
318.15 K | 0.0169
323.15 K | 0.0192
